Measured values reported in patent EP0419308A2, “Use of glutamic acid or gum arabic as anti-complement agent” (Chevance, Léon Georges, priority 1989, dated 1991).

Tested on: complément
Test: Anti-complement activity: inhibition of complement in fresh serum (technique of Chevance & Etievant / Rapp & Borsos)
Type: biochemical
Conditions: fresh serum diluted 1/40, 37°C, 45 minutes
From the text: L'activité anti-complément des substances visées par l'invention peut être mise en évidence suivant la technique décrite dans l'article de L-G-CHEVANCE et M. ETIEVANT "Etude d'un peptide (sel de magnésium de l' acide N-Acétyl (α-β)- Aspartyl-glutamique) mise en évidence de la protection contre les destructions cellulaires locales provoquées par l'activation in situ du complément" (J. Pharmacol. Paris 1986 n° 4, 676-685), ainsi que dans la parution de J. RAPP et T. BORSOS "Molecular basis of complement action" Appleton Century Crofts publ. 1970.
Après titrage du complément, on incube à 37°C pendant 45 minutes des prélèvements aliquots de 40 µl de sérum frais dilué au 1/40e, mélangés chacun respectivement à 40 µl de solutions aqueuses de concentrations croissantes de chaque substance analysée : acide L-glutamique, glutamate de sodium, gomme arabique et d'un mélange, à concentrations égales de gomme arabique et de glutamate de sodium.

| SMILES | % inhibition (Concentration 0,05 %) | % inhibition (Concentration 0,5 %) | % inhibition (Concentration 0,25 %) | % inhibition (Concentration 1 %) | % inhibition (Concentration 1,5 %) | % inhibition (Concentration 2 %) | % inhibition (Concentration 0,062 %) | % inhibition (Concentration 0,125 %) |
| --- | --- | --- | --- | --- | --- | --- | --- | --- |
| N[C@@H](CCC(=O)O)C(=O)O [Acide glutamique, acide L-glutamique] | 0,033% | 0,092% | 0,000% | 0,077% | 0,369% | 0,661% | – | – |
| N[C@@H](CCC(=O)O)C(=O)O [Glutamate de sodium, L-glutamate de sodium] | – | 0,175% | 0,112% | 0,216% | – | – | 0,101% | 0,116% |
